In patent US7745436B2, “Disalt inhibitors of IL-12 production” (Synta Pharmaceuticals Corporation, priority 2004, dated 2010):

Key:
[1] = Solubility determination in water (vortex, sonication at ~50° C, HPLC of supernatant); assay type: physicochemical; conditions: for Solubility: water, vortexed and sonicated ~5-10 min at ~50° C, HPLC
Procedure: The disalts described herein can have a relatively high solubility, e.g., water solubility. As used herein, the “solubility” of a disalt in a solvent refers to the maximum mass of a disalt that can be dissolved per unit volume of the solvent under accelerated dissolution conditions (50-60° C. with concommitant ultrasonic agitation of the disalt/solvent test sample). Unless otherwise indicated, solubility data is expressed in terms of units of milligrams (mg)/milliliter (mL), e.g., mg/mL.
The compound was weighed, and water was added to it such that the ratio of the sample and water of the mixture would be 100 mg/mL. The mixture was then shaken using a Vortex-Genie2 shaker (vortexed) and sonicated (˜5-10 min at ˜50° C). If a clear solution has been obtained, more compound was added to the solution, and a mixture was vortexed and sonicated until a homogeneous suspension was achieved. The suspension was then centrifuged at 10,000 rpm for about 10 min. The supernatant was taken out and diluted with 50/50 (v/v) EtOH/water, then the sample was analyzed by HPLC to determine the concentration.
The HPLC system consisted of the HP 1100 Model (Agilent, Wilmington, Del.) equipped with a model 1100 quaternary pump, a model 1100 autosampler, a model 1100 Diode-Array Detector for UV detection at 320 nm. The HPLC analysis was performed using an isocratic mobile phase consisting of acetonitrile-water containing 10 mM NH4OAc . Mobile phases were degassed and filtered through a solvent filtration apparatus and pumped at a constant rate of 1.0 mL/min. The separation was made on an XTerra MS C18 analytical column, 4.6 mm i.d.×150 mm, (Waters Corp., Milford, Mass., USA) fitted with a precolumn filter (XTerra MS C18, 3.9 mm×20mm). The column was maintained at 30° C. Data acquisition and instrument setting were controlled using HP Chemstation software (ver.8.03).

[2] = Solubility in water at fixed concentrations (5 mg per 0.1, 0.2 or 0.25 mL); assay type: physicochemical

## CS(=O)(=O)O.Cc1cccc(C=NNc2cc(N3CCOCC3)nc(OCCc3ccccn3)n2)c1 [{[(1)(1H^+)]^1+•[1(CH3SO3^−)]^1−}, N-(3-Methyl-benzylidene)-N′-[6-morpholin-4-yl-2-(2-pyridin-2-yl-ethoxy)-pyrimidin-4-yl]-hydrazine 1 methanesulfonate (mesylate)]
[1]
  Solubility: 52.0 ± 0.1 mg/mL

## Cc1cccc(C=NNc2cc(N3CCOCC3)nc(OCCc3ccccn3)n2)c1.Cl.Cl [{[(1)(2H^+)]^2+•[2(Cl^−)]^2−}, N-(3-Methyl-benzylidene)-N′-[6-morpholin-4-yl-2-(2-pyridin-2-yl-ethoxy)-pyrimidin-4-yl]-hydrazine (1) dihydrogenchloride (dichloride)]
[2]
  solubility in water at a concentration of 5 mg/0.1 mL: soluble
[1]
  Solubility: 213 ± 5 mg/mL

## Cc1cccc(C=NNc2nc(OCCc3ccccn3)nc(N3CCOCC3)n2)c1
other
  melting point: 143 to 147 °C

## C(=NNc1nc(OCCc2ccccn2)nc(N2CCOCC2)n1)c1c[nH]c2ccccc12
other
  melting point: 158 to 161 °C

## CS(=O)(=O)O.CS(=O)(=O)O.Cc1cccc(C=NNc2cc(N3CCOCC3)nc(OCCc3ccccn3)n2)c1 [{[(1)(2H^+)]^2+•[2(CH3SO3^−)]^2−}, N-(3-Methyl-benzylidene)-N′-[6-morpholin-4-yl-2-(2-pyridin-2-yl-ethoxy)-pyrimidin-4-yl]-hydrazine (1) dimethanesulfonate (dimesylate)]
[1]; versus monosalt {[(1)(1H^+)]^1+.[1(CH3SO3^−)]}
  solubility of disalt relative to the solubility of the corresponding monosalt: more than ten times greater
[1]
  Solubility: 831 ± 5 mg/mL

## C(=NNc1cc(N2CCOCC2)nc(OCCc2ccccn2)n1)c1c[nH]c2ccccc12
other
  melting point: 160 to 165 °C

## CN(N=Cc1c[nH]c2ccccc12)c1cc(N2CCOCC2)nc(OCCc2ccccn2)n1
other
  melting point: 130 to 140 °C

## CN(N=Cc1c[nH]c2ccccc12)c1cc(N2CCOCC2)nc(OCCc2ccccn2)n1.CS(=O)(=O)O.CS(=O)(=O)O [{[(3)(2H^+)]^2+•[2(CH3SO3^−)]^2−}, N′-(1H-indol-3-ylmethylene)-N-methyl-N-[6-morpholin-4-yl-2-(2-pyridin-2-yl-ethoxy)-pyrimidin-4-yl]-hydrazine (3) dimesylate]
[1]
  Solubility: 306 ± 14 mg/mL

## C(=NNc1cc(N2CCOCC2)nc(OCCc2ccccn2)n1)c1c[nH]c2ccccc12.CS(=O)(=O)O.CS(=O)(=O)O [{[(2)(2H^+)]^2+•[2(CH3SO3^−)]^2−}, N-(1H-indol-3-ylmethylene)—N′-[6-morpholin-4-yl-2-(2-pyridin-2-yl-ethoxy)-pyrimidin-4-yl]-hydrazine (2) dimethanesulfonate (dimesylate)]
[1]
  Solubility: 454 ± 5 mg/mL

## Cc1cccc(C=NNc2cc(N3CCOCC3)nc(OCCc3ccccn3)n2)c1.O=[N+]([O-])O.O=[N+]([O-])O [{[(1)(2H^+)]^2+•[2(NO3^−)]^2−}, N-(3-Methyl-benzylidene)-N′-[6-morpholin-4-yl-2-(2-pyridin-2-yl-ethoxy)-pyrimidin-4-yl]-hydrazine (1) dinitrate]
[2]
  solubility in water at a concentration of 5 mg/0.1 mL: insoluble
[2]; 5 mg/0.2 mL
  solubility in water at a concentration of 5 mg/0.2 mL: partially soluble
[2]; 5 mg/0.25 mL
  solubility in water at a concentration of 5 mg/0.25 mL: partially soluble
[1]
  Solubility: 83.4 ± 0.2 mg/mL

## Cc1cccc(C=NNc2cc(N3CCOCC3)nc(OCCc3ccccn3)n2)c1.Cl [{[(1)(2H^+)]^1+•[1(Cl^−)]^1−}, N-(3 -Methyl-benzylidene)-N′-[6-morpholin-4-yl-2-(2-pyridin-2-yl-ethoxy)-pyrimidin-4-yl]-hydrazine (1) hydrochloride]
[1]
  Solubility: 12.6 ± 0.4 mg/mL
